This is an account of results in US20210040485A1, “Elimination or Neutralization of Endogenous High Molecular Weight FGF-2 Increases Cardiac Resistance to Doxorubicin-Induced Damage” (University of Manitoba, priority 2018, published 2021).

Read-outs that look alike come from different tables or passages of the source.

The conditions of data set [1]: clinic; cited from earlier work.
The subject of data set [2] is r-cardiomyocytes co-cultured with human FibiPSC. As to the kind of experiment: FibiPSC-cardiomyocyte co-cultures exposed to Dox: cTnT release. The format is cell-based, rat. To be noted: control (IgG) co-cultures with h-FibiPSC; Dox 0.5 μM, 24 h. The method, then:
Fib^iPSC-Cardiomyocyte co-cultures. Cardiomyocytes were plated at a density of 5×10^4 cells/cm^2 on collagen coated plates in the presence of 20% (FBS) in Hams F-10 culture medium. After 24 hours, the media was changed to low serum medium (0.5% FBS, 1% insulin, 1% transferrin/selenium, 1% ascorbic acid, and 1% bovine serum albumin) in Dulbecco's modified Eagle's medium (DMEM). FibiPSC were added to the cultures at a density of 3×10^4/cm^2. Human Hi-FGF2 antibody (Hi-Ab, 20 μg/ml) or non-immune rabbit IgG was added to the culture after 6 hours. The Hi-Ab and rabbit IgG were supplemented in the co-cultures every 24 hours. […] Subsequently, the media was collected and stored at −80° C.
Protein extraction and immunoblotting (western blot).
Hi-FGF2 antibody. Anti-Hi-FGF2 antibody (Hi-Ab) against 12 amino acids from the N-terminal section of the Hi-FGF2 “[…]” (SEQ ID NO:1) was made in rabbit and affinity purified by Genscript. Characterization was done as we described previously, for a similar preparation anti-Hi-FGF2 (9). Affinity purified Hi-Ab was used at a concentration of 20 μg/ml in in vitro models.

The subject of data set [3] is neonatal rat ventricular cardiomyocytes co-cultured with MEFs. Briefly: MEF-cardiomyocyte co-cultures exposed to Dox: Troponin T release into medium. The format is cell-based. Conditions: Dox 0.5 μM, 24 h. How it is done:
In vitro experiments. Neonatal rat ventricular cardiomyocytes (referred to as ‘cardiomyocytes’) were isolated from 1-2 day old rat pups as previously described (10).
MEF-Cardiomyocyte co-cultures. Cardiomyocytes were plated at a density of 5×10^4 cells/cm^2 on collagen (Corning, #354236) coated glass coverslips in the presence of 20% fetal bovine serum (FBS) in Hams F-10 culture medium; 24 hours later the media was changed and MEFS from FGF2(WT), FGF2(−), FGF2(Hi), and FGF2(Lo) strains (2×10^4/cm^2) were added to the cultures in low-serum medium (0.5% FBS, 1% insulin, 1% transferrin/selenium, and 1% ascorbic acid) in Dulbecco's modified Eagle's medium (DMEM). […] Conditioned media were collected 24 h later, and stored at −80° C. Cells attached on coverslips were used for the Calcein-AM/Cobalt chloride mPTP assay.
Primary mouse embryonic fibroblasts (MEFs)-r-cardiomyocyte co-cultures. MEFs were isolated as described (30). R-cardiomyocytes were plated at a density of 5×10^4 cells/cm^2 on collagen (Corning, #354236) coated glass coverslips in the presence of 20% fetal bovine serum (FBS) in Hams F-10 culture medium; 24 hours later the media was changed and MEFS from FGF2(WT) and FGF2(Lo) strains (2×10^4/cm^2) were added to the cultures in low-serum medium (0.5% FBS, 1% insulin, 1% transferrin/selenium, and 1% ascorbic acid) in Dulbecco's modified Eagle's medium (DMEM). […]

Data set [4] has as its system Bnip3 protein in hearts of FGF2 mouse strains. Conditions: in vivo.
Description: Protein (western) immunoblotting. At the end of the in vivo study, hearts were collected, snap frozen in liquid nitrogen, and stored at −80° C. Hearts were powdered with liquid nitrogen using a mortar and pestle prior to being homogenized in 10 mM Tris-HCl pH 7.4, 100 mM NaCl, 300 mM sucrose, 2 mM MgCl2, 1% thiodiglycol, 60 mM B glycerophosphate, 10 mM NaF and an equal volume of 20% glycerol, 100 mM Tris/HCl PH=6.8, and 2% sodium dodecyl sulphate (SDS). All buffers were supplemented (1:100) with protease inhibitor cocktail (Sigma-Aldrich, #8304) and phosphatase inhibitor cocktail set II and IV (Calbiochem, #524625 and #524628). Samples were boiled, sonicated, and centrifuged 15 minutes at 21,000 g to remove cellular debris. Protein concentration was measured by bicinchoninic acid assay. Following SDS-polyacrylamide gel electrophoresis and protein transfer to polyvinylidene fluoride (PVDF) membranes, total protein was stained using 2% Ponceau S (Sigma-Aldrich, P3504) (w/v) in 30% trichloroacetic acid to assess overall protein transfer. Non-specific binding sites were blocked by incubation in 10% milk/TBS-T for 1 hour at room temperature. […]
Protein extraction and immunoblotting (western blot). […] Protein concentration was measured using the bicinchoninic acid assay from Sigma. […]
In data set [5] the test system is cancer patients. Conditions: cited from earlier work.
Data set [6] relates to FGF2(WT), FGF2(−), FGF2(Hi), FGF2(Lo) mice. As to the kind of experiment: In vivo model for acute Doxorubicin effects: mortality and body weight. Set-up: species or system mouse. Conditions: for effect on body weight: all groups, 10 days post-injection; for Dox-induced mortality: by day 10 post-Dox. An excerpt:
In vivo model for acute cardiotoxic effects. […] Hearts were then collected for biochemical analyses.

pertuzumab: the half life in data set [1] was 18 days.
For infliximab, the half life in data set [1] was 9.5 days.
For the substance Doxorubicin, in data set [2], the “cardiomyocyte damage measured by cTnT release” value is given as “robust cardiomyocyte damage”. The “Dox-induced cTnT release” value in data set [3] (co-cultures with FGF2(WT) MEFs) is listed as “observed”. Further, the “Dox-induced Tn-T release” value in data set [3] (co-cultures with FGF2(WT), FGF2(−) and FGF2(Hi) MEFs) is reported as “observed”. The “upregulation of cardiac Bnip3 protein versus saline-treated group” value in data set [4] came out at 1.5 fold. In addition, the incidence of cardiotoxicity in data set [5] (cumulative dose 400 mg/m^2) is given as 3-5%; in data set [5] (cumulative dose 700 mg/m^2) it was 18-48%. For the same substance, the “effect on body weight” value was “some weight loss” in data set [6] and “significantly decreased body weight” in data set [6] (listed as Doxorubicin). The “deaths associated with Dox administration” value in data set [6] (female FGF2(WT) and FGF2(Lo) groups) was “No death”; in data set [6] (males, in either the FGF2(WT) or the FGF2(Lo) group) it was “one death in ten animals”. Also, the Dox-induced mortality in data set [6] (female FGF2(−) mice) is 30%; in data set [6] (male FGF2(−) mice) it was 70%. The results for the post-Dox mortality in data set [6] (male FGF2(Hi) mice) and in data set [6] (male FGF2(WT) mice) were 20% and 10%, respectively. Besides, the “deaths post-Dox” value in data set [6] (remaining female groups (other than FGF2(−))) is listed as “No deaths”.
